The record followed here is patent US20160259918A1, “Computational Approach for Identifying a Combination of Two Drugs” (ALACRIS THERANOSTICS GMBH, priority 2013, published 2016).

Like-named read-outs stand apart in the source and are kept apart here. Some results are limits rather than exact numbers.

This test has as its system cell line HS695T. Description: Cell viability via Trypan blue staining in cell culture experiments. It is filed as cell-based. The settings on record: Homo sapiens, Hs 695T. The procedure: Cell lines and pharmacological characterization. Cell line HS695T (CLS) was cultured in DMEM (4 mM L-glutamine, 4.5 g/l glucose, Invitrogen) with 10% fetal bovine serum (Biochrom) and maintained at 37° C. under 5% CO2 atmosphere. The cells were dispensed as triplicates into a 6-well-plate-formate with a concentration of 5×10^5 per well 24 hours prior to drug treatment. Afterwards medium was replaced with a final drug concentration range of 2.5 nM to 8 μM by 3.16-fold dilutions (eight-dose response) of Sunitinib and PI103 as single treatment HS695T for 72 and 96 hours. […] Compounds (Selleckchem) were diluted in DMSO. The final DMSO concentration for the experiments was under 0.4%. Cell viability was determined via Trypan blue staining in duplicates for each well. 100 μl of cells were incubated with an equal volume of 0.5% Trypan blue for 2-5 minutes (in 0.9% sodium chloride) and counted using a Neubauer haemocytometer chamber and a light microscope. The means of independent cell counts were taken for analysis.
Predicted growth inhibition curves were compared to measured growth inhibition curves as previously described.

Consider `Oc1cccc(-c2nc(N3CCOCC3)c3oc4ncccc4c3n2)c1` [PI103], for which the IC50 is, setting by setting: (read-out: IC50 values determined by cell culture experiments) 830 nM; (read-out: sensitivity classification according to IC50 determined by cell culture experiments) below 2000 nM.
With `CCN(CC)CCNC(=O)c1c(C)[nH]c(/C=C2\C(=O)Nc3ccc(F)cc32)c1C` [Sunitinib], the IC50 is above 2000 nM (HS695T, read-out: sensitivity classification according to IC50 determined by cell culture experiments); 4700 nM (HS695T, single treatment, 2.5 nM to 8 μM, 72 and 96 hours, Trypan blue cell counts, read-out: IC50 values determined by cell culture experiments).

By IC50 is commonly meant the concentration needed to halve the response being measured.
